Measurements reported in US20160160224A1, “CRYPTOSPORIDIUM TRANSFECTION METHODS AND TRANSFECTED CRYPTOSPORIDIUM CELLS” (UNIVERSITY OF GEORGIA RESEARCH FOUNDATION, INC., priority 2013, published 2016).

Test system: C. parvum
Assay: Nluc luciferase assay of transfected C. parvum cultured in HCT-8 cells in the presence of drug
Assay type: cell-based, Cryptosporidium parvum
Conditions: electroporated (Nluc-transfected) C. parvum grown in paramomycin on HCT-8 host cells; FIG. 3D
Text: Next, we performed transfections and then cultured the transfected parasites in the presence of paramomycin, a drug that reduces growth of C. parvum but not the mammalian host cell. […] (FIG. 3D). We also tested an Nluc plasmid that lacks the Cryptosporidium promoter but carries Toxoplasma flanking sequences instead. […] Lastly, we tested whether parasite vectors can transduce host cells by deliberately delivering plasmid DNA into the HCT-8 host cell cytoplasm by lipofection. […] Collectively these measurements confirm that Apicomplexa and mammals have divergent primary sequence elements that drive transcription and subsequent RNA processing. Cryptosporidium transfection therefore depends on the introduction of a parasite species specific vector into viable parasites. Moreover, passive DNA delivery into the host is not relevant for activity and host cells are not transfected even when DNA is deliberately introduced into the host. […]
For in vitro experiments, cells were scraped from T-25 flasks or 24-well plates and collected after 48 hours of incubation. […] After five minutes of incubation at room temperature, the cell lysate was added to white 96 well plates and luminescence was measured on a luminometer (BioTek Instruments, Inc., Winooski, Vt.). The read out was quantified in terms of relative luminescence units (RLU).

NC[C@@H]1O[C@H](O[C@H]2[C@@H](O)[C@H](O[C@@H]3[C@@H](O)[C@H](N)C[C@H](N)[C@H]3O[C@H]3O[C@H](CO)[C@@H](O)[C@H](O)[C@H]3N)O[C@@H]2CO)[C@H](N)[C@@H](O)[C@@H]1O [Paramomycin, paramomycin]
Nluc expression (luciferase activity): reduction of Nluc expression
